“And” between values parts separate entries of the source, which are not always exact repeats. Equal entries are not always repeated. Structures can show the parent of a compound that is named as a salt.

The test system of one assay is L. tropica amastigotes. The assay is described as follows: L. tropica amastigotes in peritoneal exudate cells in Mc Coy's medium in vitro at 37° C. It counts as cell-based. The method, then:
(§1) A. Scoring of drug activity:
(§2) a. amastigotes in peritoneal exudate cells in Mc Coy's medium in vitro at 37° C.
+++=clearance of all parasites in 24 hrs
++=clearance of all parasites in 48 hrs
+=clearance of all parasites in 72 hrs
±=partial clearance of parasites in 72 hours or more
-=no activity against parasites.

The subject of the next assay is L. tropica promastigotes. The assay is described as follows: L. tropica promastigotes in Mc Coy's medium in vitro at 27° C. It counts as cell-based. How it is done:
as §1
(§3) b. promastigotes in Mc Coy's medium in vitro at 27° C.
+++=no viable parasites after 24 hours
++=no viable parasites after 48 hours
+=no viable parasites after 72 hours
±=no viable parasites after 96 hours
-=viable parasites after 120 hours.

The next assay deals with Trypanosoma. The assay is described as follows: Trypanosoma in RPMI medium in vitro at 37° C. It counts as cell-based. Conditions: for Trypanosoma in vitro, activity score: RPMI medium, 37° C.; for active against Trypanosoma: summary. How it is done: Trypanosoma in RPMI medium in vitro at 37° C. Scoring as in b.
The test system of a further assay is Leishmania. The assay is described as follows: Anti Leishmania tests (amastigotes and promastigotes), summary. It counts as cell-based, L. tropica. How it is done: as §1, §2, §3
The test system of assay [1] is 4 mycoplasma (M. gallisepticum, capricolum, M. hominis, A. laidlawii). The assay is described as follows: organism not typed. It counts as cell-based. The following applies: read-out: 50% inhibition of growth in liquid medium, concentration.
Another assay relates to Candida albicans. The assay is described as follows: Antimycotic activity (human), growth on Sabouraud dextrose agar. It counts as cell-based. Also noted: key to the marks not given beside the values. From the text: Control (full growth): ++++
The test system of another assay is Trichophyton rubrum. Described as above. Also noted: key to the marks not given beside the values. The following applies: 10 μg/ml.
The subject of assay [2] is Trichophyton mentagrophytes. The assay is described as above. Also on record: key to the marks not given beside the values. The following applies: 10 μg/ml.
For a further assay, the system named is HSV-1 (Herpes Simplex). The assay is described as follows: Inhibition test on HSV replication. It counts as cell-based. The following applies: Human alphaherpesvirus 1, BSC-1 cells, 10 PFU/cell. From the text: |INHIBITION TEST ON HSV REPLICATION |Cells |BSC-1 (Green monkey Kidney) |Virus |HSV-1 (Herpes Simplex) |Inoculum |10 PFU/cell |Medium |DMEM + 10% C.S. | Herpes | J. Levitt & Y. Becker | Virology 31, 129-134 (1967) | **% Inhibition of control infected for some time with same virus PFV with | no inhibition.

Assay [3] has as its system haloperidol-induced catalepsy. The assay is described as follows: Antiparkinson activity: anticataleptic effect in rats (haloperidol catalepsy). It counts as in vivo, Male Charles River albino rats. Conditions: individual rats, 80 mg/kg i.p., one line per rat, in order rat 1 to rat 5. The method, then:
Male Charles River albino rats, weighing 200-250 g, were used. Catalepsy was produced by haloperidol, 5 mg/kg i.p. The animals were placed with their front paws on a horizontal bar, about 10 cm above the ground, and animals were considered cataleptic if not changing posture for at least 30 sec. Cataleptic animals were injected l.p. with one of the drugs at a dose of 40-80 mg/kg. Catalepsy was estimated again at the intervals indicated.
Male Charles River albino rats, wighing 200-250 g, were used. Catalepsy was produced by haloperidol, 5 mg/kg i.p. The animals were placed with their front paws on a horizontal bar, about 10 cm above the ground, and animals were considered cataleptic if not changing posture for at least 30 sec. Cataleptic animals were injected i.p. with one of the drugs at a dose of 40-80 mg/kg. catalepsy was estimated again at the intervals indicated.

For assay [4], the system named is stereotyped behaviour (sniffing, biting, repetitive head movement). The assay is described as follows: Stereotyped behaviour in mice. Also noted: stereotyped behaviour score / Total Score (stereotyped behaviour) / Mean Score (stereotyped behaviour): scale not given here. It counts as in vivo, Male ICR albino mice. Conditions: 50 mg/kg i.p. The method, then:
Male ICR albino mice weighing 25-30 g were put in cages with a metal grid floor, 4 in each cage. Drugs were injected intraperitoneally and stereotyped behaviour (sniffing, biting, repetitive head movement) was evaluated every 30 min.

In the case of `CNNCC12CC3CC(CC(C3)C1)C2` [Example 1, 1-(Adamant-1'-ylmethyl)-2-methylhydrazine hydrochloride], the “Leishmania amastigote, activity score” value in the assay on L. tropica amastigotes (10 μg) and in the assay on L. tropica amastigotes (100 μg) was “± (partial clearance of parasites in 72 hours or more)” throughout. The “Leishmania promastigote, activity score” value in the assay on L. tropica promastigotes (10 μg) is on record as “- (viable parasites after 120 hours.)”; with L. tropica promastigotes (100 μg) it was “+++ (no viable parasites after 24 hours)”. For the same molecule, the “Trypanosoma in vitro, activity score” value in the assay with Trypanosoma (10 μg) was “± (no viable parasites after 96 hours)”; in the assay on Trypanosoma (100 μg), “+++ (no viable parasites after 24 hours)”. Besides, the “active against Trypanosoma” value in the assay with Trypanosoma is reported as “active”. In addition, in the assay on Leishmania, the “active against Leishmania” value was “active”.
`c1ccc(CNNCC23CC4CC(CC(C4)C2)C3)cc1` [Example 3, 1-(Adamant-1'-ylmethyl)-2-benzylhydrazine hydrochloride]: the IC50 in [1] is 5 to 30 µg/mL. Also, the “growth of C. albicans” value in the assay on Candida albicans (10 μg/ml), with Candida albicans (50 μg/ml) and in the assay on Candida albicans (100 μg/ml) was “++++” in each case.
For the molecule `C1CCN(NCC23CC4CC(CC(C4)C2)C3)CC1` [Example 8, 1-(Adamant-1'-ylmethylamino)piperidine hydrochloride], the IC50 in assay [1] is 5 to 30 µg/mL. Also, the “growth of C. albicans” value in the assay on Candida albicans (10 μg/ml), in the assay on Candida albicans (50 μg/ml) and with Candida albicans (100 μg/ml) was “++++” throughout. For the same molecule, in the assay on Trichophyton rubrum, the “growth of T. rubrum” value is listed as “++++”. In [2], the “growth of T. mentagrophytes” value was “++++”.
For the molecule `NNCC12CC3CC(CC(C3)C1)C2` [Example 14, (Adamant-1-ylmethyl)hydrazine hydrochloride], the “Leishmania amastigote, activity score” value in the assay on L. tropica amastigotes (10 μg) is given as “± (partial clearance of parasites in 72 hours or more)”; with L. tropica amastigotes (100 μg), “++ (clearance of all parasites in 48 hrs)”. Further, the “Trypanosoma in vitro, activity score” value in the assay with Trypanosoma (10 μg) and in the assay on Trypanosoma (100 μg) was “+++ (no viable parasites after 24 hours)” each time. Besides, the “active against Trypanosoma” value with Trypanosoma is “active”. In addition, the “active against Leishmania” value with Leishmania is recorded as “active”.
As for `CN(N)CC12CC3CC(CC(C3)C1)C2` [Example 15, 1-Methyl-1-(adamant-1'-ylmethyl)hydrazine hydrochloride hydrate], the “Leishmania promastigote, activity score” value is given as “- (viable parasites after 120 hours.)” with L. tropica promastigotes (10 μg) and “+++ (no viable parasites after 24 hours)” in the assay on L. tropica promastigotes (100 μg). Moreover, the “active against Leishmania” value with Leishmania is “active”.
For the molecule `CN(N)CC1C2CC3CC(C2)CC1C3` (stereo not drawn) [Example 16, 1-Methyl-1-(adamant-2'-ylmethyl)hydrazine hydrochloride], the “growth of C. albicans” value in the assay on Candida albicans (10 μg/ml) and in the assay on Candida albicans (50 μg/ml) was “++++” throughout.
On to `c1ccc(CCNNCC23CC4CC(CC(C4)C2)C3)cc1` [Example 25, 1-(Adamant-1'-ylmethyl)-2-phenethylhydrazine dihydrate], for which the IC50 in assay [1] was 5 to 30 µg/mL.
The inhibition is the drop in the measured response relative to a control, in per cent. Molecule `C1CCN(NCC2C3CC4CC(C3)CC2C4)C1` (stereo not drawn) [Example 31, 1-(Adamant-2'-ylmethylamino)pyrrolidine hydrochloride] had an inhibition at 25 µg/mL with HSV-1 (Herpes Simplex) (25 μg/ml) of 51%. In addition, testing at 50 µg/mL in the assay on HSV-1 (Herpes Simplex) (50 μg/ml) gave an inhibition of 91%. For the same molecule, 100 µg/mL produced 97% inhibition in the assay on HSV-1 (Herpes Simplex) (100 μg/ml).
With `CC(C)N(N)CC12CC3CC(CC(C3)C1)C2` [Example 38, 1-(Adamant-1'-ylmethyl)-1-isopropylhydrazine hydrochloride], the IC50 in assay [1] lay in the range of 5 to 30 µg/mL. The “growth of C. albicans” value with Candida albicans (10 μg/ml), in the assay with Candida albicans (50 μg/ml) and with Candida albicans (100 μg/ml) was “++++” in each case. The “growth of T. rubrum” value in the assay on Trichophyton rubrum was “++++”. For the same molecule, the “growth of T. mentagrophytes” value in [2] is “++++”.
For `N=C(N)c1ccc(OCCCCCOc2ccc(C(=N)N)cc2)cc1` [Pentamidine, reference compound], the “Leishmania promastigote, activity score” value in the assay with L. tropica promastigotes (10 μg) and in the assay on L. tropica promastigotes (100 μg) was “+++ (no viable parasites after 24 hours)” in each case. Moreover, the “Trypanosoma in vitro, activity score” value is recorded as “- (viable parasites after 120 hours.)” in the assay on Trypanosoma (10 μg) and “++ (no viable parasites after 48 hours)” in the assay with Trypanosoma (100 μg).
Turning to `NC12CC3CC(CC(C3)C1)C2` [Symmetrel, reference compound], the anticataleptic effect in [3] is 0/4 and 2/4 and 3/4 (3×). The “Total Score (stereotyped behaviour)” value in [4] (0-240 min, one line per mouse, in order Mouse 1 to Mouse 4, 50 mg/kg) was 17 (3×) and 13. Besides, the stereotyped behaviour score in assay [4] (0 min, one line per mouse, in order Mouse 1 to Mouse 4) is 0; in assay [4] (30 min, one line per mouse, in order Mouse 1 to Mouse 4) it was 1; in assay [4] (45 min, one line per mouse, in order Mouse 1 to Mouse 4), 1; in assay [4] (60 min, one line per mouse, in order Mouse 1 to Mouse 4, 50 mg/kg), 2 (2×) and 1 (2×); in assay [4] (90 min, one line per mouse, in order Mouse 1 to Mouse 4, 50 mg/kg), 1 (3×) and 2; in [4] (120 min, one line per mouse, in order Mouse 1 to Mouse 4), 2. Besides, the stereotyped behaviour score is 2 in [4] (135 min, one line per mouse, in order Mouse 1 to Mouse 4); 2 in assay [4] (150 min, one line per mouse, in order Mouse 1 to Mouse 4); 2 in [4] (180 min, one line per mouse, in order Mouse 1 to Mouse 4); 2 (3×) and 1 in [4] (210 min, one line per mouse, in order Mouse 1 to Mouse 4, 50 mg/kg); 2 (3×) and 0 in [4] (240 min, one line per mouse, in order Mouse 1 to Mouse 4, 50 mg/kg). Also, the “Mean Score (stereotyped behaviour)” value in assay [4] (mean of 4 mice) came out at 16.

For the origin of these results see patent US4202892A, “Biocidal methyladamantyl hydrazines and pharmaceutical compositions containing them” (Teva Pharmaceutical Industries, Ltd., priority 1977, dated 1980).
